# Measurements: PubChem BioAssay AID2060884 (Molecular Pharmacology Branch, DTP, NCI, 2025)
# Tested on: NCI-H929 complex spheroids, viability % test/control
# Assay: Anticancer human tumor NCI-H929 cell line growth inhibition [RAS];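 also: compound exposure lasted seven days before viability was read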;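 as to viability, T/C: 100% = DMSO vehicle control viability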
# Settings: for IC50: curve of first compound; for viability, T/C: stronger effect = lower value
# How it was run: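 Multi-cell-type spheroids: tumor cells plus HUVEC endothelial cells and mesenchymal stem cells. RAS-pathway inhibitors were combined with targeted agents, each dosed in half-log steps down from clinical Cmax, or from 10 microM when Cmax was unknown.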
# [1] = second compound 0.00316 µM, first compound 0.0316 µM
# [2] = second compound 0.00316 µM, first compound 0.1 µM
# [3] = second compound 0.00316 µM, first compound 0.316 µM
# [4] = second compound 0.00316 µM, first compound 1 µM
# [5] = second compound 0.00316 µM, first compound 3.16 µM
# [6] = second compound 0.00316 µM, first compound 10 µM
# [7] = second compound 0.01 µM, first compound 0.0316 µM
# [8] = second compound 0.01 µM, first compound 0.1 µM
# [9] = second compound 0.01 µM, first compound 0.316 µM
# [10] = second compound 0.01 µM, first compound 1 µM
# [11] = second compound 0.01 µM, first compound 3.16 µM
# [12] = second compound 0.01 µM, first compound 10 µM
# [13] = second compound 0.0316 µM, first compound 0.0316 µM
# [14] = second compound 0.0316 µM, first compound 0.1 µM
# [15] = second compound 0.0316 µM, first compound 0.316 µM
# [16] = second compound 0.0316 µM, first compound 1 µM
# [17] = second compound 0.0316 µM, first compound 3.16 µM
# [18] = second compound 0.0316 µM, first compound 10 µM
# [19] = second compound 0.1 µM, first compound 0.0316 µM
# [20] = second compound 0.1 µM, first compound 0.1 µM
# [21] = second compound 0.1 µM, first compound 0.316 µM
# [22] = second compound 0.1 µM, first compound 1 µM
# [23] = second compound 0.1 µM, first compound 3.16 µM
# [24] = second compound 0.1 µM, first compound 10 µM
# [25] = second compound 0.316 µM, first compound 0.0316 µM
# [26] = second compound 0.316 µM, first compound 0.1 µM
# [27] = second compound 0.316 µM, first compound 0.316 µM
# [28] = second compound 0.316 µM, first compound 1 µM
# [29] = second compound 0.316 µM, first compound 3.16 µM
# [30] = second compound 0.316 µM, first compound 10 µM
# [31] = second compound 1 µM, first compound 0.0316 µM
# [32] = second compound 1 µM, first compound 0.1 µM
# [33] = second compound 1 µM, first compound 0.316 µM
# [34] = second compound 1 µM, first compound 1 µM
# [35] = second compound 1 µM, first compound 3.16 µM
# [36] = second compound 1 µM, first compound 10 µM
smiles,measurement,setting,value
CC(C)NCC(C(=O)N1CCN(c2ncnc3c2C(C)CC3O)CC1)c1ccc(Cl)cc1 (stereo unspecified) + C=CC(=O)N1CCN(c2nc(OCC3CCCN3C)nc3c(F)c(-c4nc(N)cc(C)c4C(F)(F)F)c(Cl)cc23)C(C)C1,IC50,second compound 0.00316 µM,2820 nM
same,IC50,second compound 0.01 µM,3070 nM
same,IC50,second compound 0.0316 µM,4680 nM
same,IC50,second compound 0.1 µM,4080 nM
same,IC50,second compound 0.316 µM,2490 nM
same,IC50,second compound 1 µM,3660 nM
same,"viability, T/C",[1],102%
same,"viability, T/C",[2],101%
same,"viability, T/C",[3],108%
same,"viability, T/C",[4],101%
same,"viability, T/C",[5],44.4%
same,"viability, T/C",[6],12.1%
same,"viability, T/C",[7],103%
same,"viability, T/C",[8],103%
same,"viability, T/C",[9],105%
same,"viability, T/C",[10],104%
same,"viability, T/C",[11],48.5%
same,"viability, T/C",[12],15.1%
same,"viability, T/C",[13],97.5%
same,"viability, T/C",[14],103%
same,"viability, T/C",[15],108%
same,"viability, T/C",[16],103%
same,"viability, T/C",[17],67.6%
same,"viability, T/C",[18],16.1%
same,"viability, T/C",[19],101%
same,"viability, T/C",[20],105%
same,"viability, T/C",[21],110%
same,"viability, T/C",[22],108%
same,"viability, T/C",[23],60%
same,"viability, T/C",[24],15.2%
same,"viability, T/C",[25],102%
same,"viability, T/C",[26],105%
same,"viability, T/C",[27],109%
same,"viability, T/C",[28],106%
same,"viability, T/C",[29],35.4%
same,"viability, T/C",[30],15.4%
same,"viability, T/C",[31],114%
same,"viability, T/C",[32],115%
same,"viability, T/C",[33],108%
same,"viability, T/C",[34],108%
same,"viability, T/C",[35],56.3%
same,"viability, T/C",[36],6.44%
CC(C)n1nc(-c2ccc3oc(N)nc3c2)c2c(N)ncnc21 + C=CC(=O)N1CCN(c2nc(OCC3CCCN3C)nc3c(F)c(-c4nc(N)cc(C)c4C(F)(F)F)c(Cl)cc23)C(C)C1,IC50,second compound 0.00316 µM,63.2 nM
same,IC50,second compound 0.01 µM,64.7 nM
same,IC50,second compound 0.0316 µM,65 nM
same,IC50,second compound 0.1 µM,64.2 nM
same,IC50,second compound 0.316 µM,65.5 nM
same,IC50,second compound 1 µM,64.4 nM
same,"viability, T/C","second compound 0.00316 µM, first compound 0.000316 µM",102%
same,"viability, T/C","second compound 0.00316 µM, first compound 0.001 µM",104%
same,"viability, T/C","second compound 0.00316 µM, first compound 0.00316 µM",112%
same,"viability, T/C","second compound 0.00316 µM, first compound 0.01 µM",111%
same,"viability, T/C",[1],118%
same,"viability, T/C",[2],10.6%
same,"viability, T/C","second compound 0.01 µM, first compound 0.000316 µM",102%
same,"viability, T/C","second compound 0.01 µM, first compound 0.001 µM",107%
same,"viability, T/C","second compound 0.01 µM, first compound 0.00316 µM",109%
same,"viability, T/C","second compound 0.01 µM, first compound 0.01 µM",114%
same,"viability, T/C",[7],122%
same,"viability, T/C",[8],13%
same,"viability, T/C","second compound 0.0316 µM, first compound 0.000316 µM",98.6%
same,"viability, T/C","second compound 0.0316 µM, first compound 0.001 µM",106%
same,"viability, T/C","second compound 0.0316 µM, first compound 0.00316 µM",112%
same,"viability, T/C","second compound 0.0316 µM, first compound 0.01 µM",117%
same,"viability, T/C",[13],126%
same,"viability, T/C",[14],12.9%
same,"viability, T/C","second compound 0.1 µM, first compound 0.000316 µM",95.4%
same,"viability, T/C","second compound 0.1 µM, first compound 0.001 µM",106%
same,"viability, T/C","second compound 0.1 µM, first compound 0.00316 µM",115%
same,"viability, T/C","second compound 0.1 µM, first compound 0.01 µM",117%
same,"viability, T/C",[19],122%
same,"viability, T/C",[20],11.6%
same,"viability, T/C","second compound 0.316 µM, first compound 0.000316 µM",107%
same,"viability, T/C","second compound 0.316 µM, first compound 0.001 µM",111%
same,"viability, T/C","second compound 0.316 µM, first compound 0.00316 µM",109%
same,"viability, T/C","second compound 0.316 µM, first compound 0.01 µM",119%
same,"viability, T/C",[25],120%
same,"viability, T/C",[26],13.3%
same,"viability, T/C","second compound 1 µM, first compound 0.000316 µM",114%
same,"viability, T/C","second compound 1 µM, first compound 0.001 µM",110%
same,"viability, T/C","second compound 1 µM, first compound 0.00316 µM",112%
same,"viability, T/C","second compound 1 µM, first compound 0.01 µM",117%
same,"viability, T/C",[31],120%
same,"viability, T/C",[32],9.93%
C[C@@H](NC(=O)c1ncnc(N)c1Cl)c1ncc(C(=O)Nc2cc(C(F)(F)F)c(Cl)cn2)s1 + C=CC(=O)N1CCN(c2nc(OCC3CCCN3C)nc3c(F)c(-c4nc(N)cc(C)c4C(F)(F)F)c(Cl)cc23)C(C)C1,IC50,second compound 0.00316 µM,> 10000 nM
same,IC50,second compound 0.01 µM,> 10000 nM
same,IC50,second compound 0.0316 µM,> 10000 nM
same,IC50,second compound 0.1 µM,> 10000 nM
same,IC50,second compound 0.316 µM,> 10000 nM
same,IC50,second compound 1 µM,> 10000 nM
same,"viability, T/C",[1],106%
same,"viability, T/C",[2],95.9%
same,"viability, T/C",[3],101%
same,"viability, T/C",[4],97.9%
same,"viability, T/C",[5],101%
same,"viability, T/C",[6],115%
same,"viability, T/C",[7],91.8%
same,"viability, T/C",[8],101%
same,"viability, T/C",[9],92.3%
same,"viability, T/C",[10],83.8%
same,"viability, T/C",[11],91.2%
same,"viability, T/C",[12],116%
same,"viability, T/C",[13],95%
same,"viability, T/C",[14],94.1%
same,"viability, T/C",[15],93%
same,"viability, T/C",[16],87.8%
same,"viability, T/C",[17],100%
same,"viability, T/C",[18],115%
same,"viability, T/C",[19],85.9%
same,"viability, T/C",[20],95.2%
same,"viability, T/C",[21],104%
same,"viability, T/C",[22],97.7%
same,"viability, T/C",[23],103%
same,"viability, T/C",[24],114%
same,"viability, T/C",[25],99.6%
same,"viability, T/C",[26],102%
same,"viability, T/C",[27],102%
same,"viability, T/C",[28],95%
same,"viability, T/C",[29],97.3%
same,"viability, T/C",[30],117%
same,"viability, T/C",[31],110%
same,"viability, T/C",[32],101%
same,"viability, T/C",[33],103%
same,"viability, T/C",[34],108%
same,"viability, T/C",[35],103%
same,"viability, T/C",[36],111%
